Source: US5321016A, “Use of certain substituted α-amino acids in treating stress-related psychiatric disorders” (Sandoz Pharmaceuticals Corp., priority 1986, dated 1994)

Legend:
[1] = tested on: electroshock-induced convulsions; test: inhibition of electroshock-induced convulsions in the mouse; assay type: in vivo, mouse (OF-1); conditions: ip, 1 h, i.p., 60 minutes before shock, read-out: EDmin in the electroshock-induced convulsion test
Description: E. Swinyard, J. Am. Pharm. Assoc. Scient. Ed. 38, 201 (1949) and J. Pharmacol. Exptl. Therap. 106, 319 (1952)]. In this test groups of 3 mice (18-26 g, OF-1, Sandoz Basle) receive the test substance in a dosage of 3.2-100 mg/kg i.p. After 60 minutes a 50 mA, 200 ms long shock is applied with corneal electrodes smeared with electrolyte jelly. This supra-threshold shock produces tonic extensor convulsions of all extremities. Inhibition of the hindlimb extension is taken as a protective action. After investigation of several dose-levels an EDmin is estimated.

[2] = tested on: NMDA (N-Methyl-D-aspartic acid) receptors; test: inhibition of NMDA-induced depolarizations of the isolated amphibian spinal cord (competitive antagonism); assay type: cell-based, toad or frog; conditions: at 5 μM
Text: The compounds of the invention further interact with excitatory amino acid systems, in particular they are competitive antagonists of NMDA (N-Methyl-D-aspartic acid) receptors, as indicated by an inhibitory effect on NMDA-induced depolarizations of the isolated amphibian spinal cord. This may be shown in the test performed in conventional manner (see for example D. R. Curtis et al., J. Physiol. (London) 150, 656-682 (1961) and R. H. Evans et al., Br. J. Pharmac. 67, 591-603 (1979) as follows:
A hemisected proximal part of the spinal cord of a toad or frog lies in a recording chamber being perfused by a Ringer solution (111 mM NaCl, 2 mM KCl, 2 mM CaCl2, 12 mM Glucose, Tris-buffer (pH 7.5, 10 mM). The dorsal root is pulled into the stimulating chambers, the ventral root into the recording chambers. A stimulator connected to the stimulating chambers is used. A DC high impedance preamplifier measures the DC potential between the ground lead sampling the main chamber and one of the recording chambers. The signal from the pre-amplifier is monitored on a CRO to display stimulated synaptic activity (dorsal root--ventral root potential, DR--VRP) or to a chart recorder to display slow changes in potential. […]
Antagonists are tested in two stages. […] In such cases pA2 values are calculated according to the formula […]

plasma corticosterone = test: inhibition of plasma corticosterone rise induced by social stress in mice; assay type: in vivo, mouse (male, OF-1); conditions: 0.3 to 3 mg/kg p.o.
Description: This can be shown in the following test:
One day before the experiment a group of 5 male mice (40-50 g, OF-1, Sandoz,Basle) were placed in a transparent makrolon cage Typ 3, which is cut in halves by a grid. The next day each mouse was given an oral dose of 0.3-30 mg/kg of a compound of the invention, Two hours later an isolated male mouse was introduced for 15 minutes into the empty half of the cage and two trained observers recorded the behaviour of the mice in terms of acts such as dig, push-dig and rattle. Blood plasma samples were then taken from the tested mice group and assayed for corticosterone concentrations using a modified method of Paerson-Murphy B. E., J. Clin. Endocrinology 27 (1967) 973-990. The procedure was repeated with a control group of 5 mice which was given only a solvent.

SMILES: NC(Cc1cc(CP(=O)(O)O)cc(-c2ccc(Cl)cc2)c1)C(=O)O (racemic) [Example 1, (±)-α-Amino-3-(4'-chloro-5-phosphonomethyl-[1.1'-biphenyl]-3-yl)propanoic acid]
- minimal effective dose [1]: < 50 mg/kg
- pA2 as NMDA receptor inhibitor [2]: 7.3

SMILES: NC(Cc1cc(CP(=O)(O)O)cc(-c2ccccc2)c1)C(=O)O (single isomer, unassigned) [Example 16, (+)-α-Amino-3-(5-phosphonomethyl-[1.1'-biphenyl]-3-yl) propanoic acid]
- inhibition of the rise of plasma-corticosterone (social stress) (plasma corticosterone): inhibits significantly
